# Results taken from patent US20250108038A1 (priority 2023, published 2025).
# Values joined by “and” are separate entries in the source; they are usually repeats but may differ in a detail not shown here. Equal values may be shown once.
# Test system: Long Evans rats
# Test: Behavioral satiety sequence (BSS)
# Assay type: in vivo, Long Evans rat
# Details: for BSS scoring A (active), Time Bin 13 (60-65 TOTAL), AVG / BSS scoring A (active), Time Bin 14 (65-70 TOTAL), AVG / BSS scoring A (active), Time Bin 15 (70-75 TOTAL), AVG / BSS scoring A (active), Time Bin 16 (75-80 TOTAL), AVG / BSS scoring A (active), Time Bin 17 (80-85 TOTAL), AVG / BSS scoring A (active), Time Bin 18 (85-90 TOTAL), AVG / BSS scoring E (eating/drinking), Time Bin 13 (60-65 TOTAL), AVG / BSS scoring E (eating/drinking), Time Bin 14 (65-70 TOTAL), AVG / BSS scoring E (eating/drinking), Time Bin 15 (70-75 TOTAL), AVG / BSS scoring E (eating/drinking), Time Bin 16 (75-80 TOTAL), AVG / BSS scoring E (eating/drinking), Time Bin 17 (80-85 TOTAL), AVG / BSS scoring E (eating/drinking), Time Bin 18 (85-90 TOTAL), AVG / BSS scoring G (grooming), Time Bin 13 (60-65 TOTAL), AVG / BSS scoring G (grooming), Time Bin 14 (65-70 TOTAL), AVG / BSS scoring G (grooming), Time Bin 15 (70-75 TOTAL), AVG / BSS scoring G (grooming), Time Bin 16 (75-80 TOTAL), AVG / BSS scoring G (grooming), Time Bin 17 (80-85 TOTAL), AVG / BSS scoring G (grooming), Time Bin 18 (85-90 TOTAL), AVG / BSS scoring R (resting), Time Bin 13 (60-65 TOTAL), AVG / BSS scoring R (resting), Time Bin 14 (65-70 TOTAL), AVG / BSS scoring R (resting), Time Bin 15 (70-75 TOTAL), AVG / BSS scoring R (resting), Time Bin 16 (75-80 TOTAL), AVG / BSS scoring R (resting), Time Bin 17 (80-85 TOTAL), AVG / BSS scoring R (resting), Time Bin 18 (85-90 TOTAL), AVG: AVG of animals LT-1 to LT-12
# Source text: The Behavioural Satiety Sequence (BSS) is a technique used to evaluate physiological satiety. It is based on the expression of a sequence of behaviors including eating, grooming, locomotor activity, followed by resting, which are typically observed in rodents post-ingestion (Halford et al, 1998, Pharmacology Biochemistry and Behaviour. 61(2): 159-168). The BSS is a widely used model for determining the effects of novel pharmaceuticals on food intake and measures of satiety in rodents (Oliveira et al, 2011, Revista de Nutrição. 24(4) 619-628), and to discriminate the cause of reduced food intake following pharmacological manipulation. For example, treatments that may reduce food intake by non-specific mechanisms, such as immobility, malaise, and taste adulteration, will disrupt this sequence (Halford et al, 1998, Pharmacology Biochemistry and Behaviour. 61(2): 159-168).
# Specifically, 12 male Long-Evans rats were food-deprived for 22 h with a 2 h feeding period each day. Rats were trained to consume daily food during the 2 h period over 25 days. The testing phase was initiated once the rats consistently consumed 16-18 g of food per day with ≤10% variance in amount of feed consumed. Feeding took place in designated individual boxes in a quiet room separate from the housing room. Continuous remote monitoring via video camera during feeding was used to assess the BSS. Food consumption was measured by weighing the total available food before and after the 2 h feeding window, correcting for spillage. Lorcaserin (1 mg/kg) was included as a reference control (Higgins et al, 2011, Neuropsychopharmacology. 37(5): 1177-1191). Subjects were tested using a repeated-measures, Latin square design with 2-3 days wash-out between treatment cycles.
# On scheduled test days, animals were monitored remotely via video camera during the feeding access period. The occurrence of four mutually exclusive behaviors (eating/drinking, grooming, active, rest) were individually scored. Over the 2 h feeding period, behaviors were assessed every 30 seconds. Scores were compiled into 23 5 min timebins (timebin 24 was removed due to early removal of animals) and the frequency of each behavior within each timebin was calculated to determine a temporal frequency of each measure (Rodgers et al, 2010, Pharmacology Biochemistry and Behaviour. 97: 3-14). Percentage time was plotted for each behavioral sequence in each timebin to compare between treatment groups (Higgins et al, 2011, Neuropsychopharmacology. 37(5): 1177-1191).
# [1] = 0.1 mg/kg, raw score per animal LT-1 to LT-12
# [2] = 0.3 mg/kg, raw score per animal LT-1 to LT-12
smiles,measurement,setting,value
Clc1ccc(C2(OCC3OCCO3)c3ccccc3C3=NCCN32)cc1 (stereo not drawn) [Compound I-19],"BSS scoring A (active), Time Bin 13 (60-65 TOTAL), AVG",0.1 mg/kg,0.20
same,"BSS scoring A (active), Time Bin 14 (65-70 TOTAL), AVG",0.1 mg/kg,0.10
same,"BSS scoring A (active), Time Bin 15 (70-75 TOTAL), AVG",0.1 mg/kg,0.13
same,"BSS scoring A (active), Time Bin 16 (75-80 TOTAL), AVG",0.1 mg/kg,0.23
same,"BSS scoring A (active), Time Bin 17 (80-85 TOTAL), AVG",0.1 mg/kg,0.36
same,"BSS scoring A (active), Time Bin 18 (85-90 TOTAL), AVG",0.1 mg/kg,0.22
same,"BSS scoring E (eating/drinking), Time Bin 13 (60-65 TOTAL), AVG",0.1 mg/kg,0.74
same,"BSS scoring E (eating/drinking), Time Bin 14 (65-70 TOTAL), AVG",0.1 mg/kg,0.83
same,"BSS scoring E (eating/drinking), Time Bin 15 (70-75 TOTAL), AVG",0.1 mg/kg,0.83
same,"BSS scoring E (eating/drinking), Time Bin 16 (75-80 TOTAL), AVG",0.1 mg/kg,0.63
same,"BSS scoring E (eating/drinking), Time Bin 17 (80-85 TOTAL), AVG",0.1 mg/kg,0.58
same,"BSS scoring E (eating/drinking), Time Bin 18 (85-90 TOTAL), AVG",0.1 mg/kg,0.71
same,"BSS scoring G (grooming), Time Bin 13 (60-65 TOTAL), AVG",0.1 mg/kg,0.03
same,"BSS scoring G (grooming), Time Bin 14 (65-70 TOTAL), AVG",0.1 mg/kg,0.05
same,"BSS scoring G (grooming), Time Bin 15 (70-75 TOTAL), AVG",0.1 mg/kg,0.01
same,"BSS scoring G (grooming), Time Bin 16 (75-80 TOTAL), AVG",0.1 mg/kg,0.05
same,"BSS scoring G (grooming), Time Bin 17 (80-85 TOTAL), AVG",0.1 mg/kg,0.05
same,"BSS scoring G (grooming), Time Bin 18 (85-90 TOTAL), AVG",0.1 mg/kg,0.02
same,"BSS scoring R (resting), Time Bin 13 (60-65 TOTAL), AVG",0.1 mg/kg,0.03
same,"BSS scoring R (resting), Time Bin 14 (65-70 TOTAL), AVG",0.1 mg/kg,0.02
same,"BSS scoring R (resting), Time Bin 15 (70-75 TOTAL), AVG",0.1 mg/kg,0.03
same,"BSS scoring R (resting), Time Bin 16 (75-80 TOTAL), AVG",0.1 mg/kg,0.08
same,"BSS scoring R (resting), Time Bin 17 (80-85 TOTAL), AVG",0.1 mg/kg,0.02
same,"BSS scoring R (resting), Time Bin 18 (85-90 TOTAL), AVG",0.1 mg/kg,0.06
same,"BSS scoring A (active), Time Bin 13 (60-65 TOTAL)",[1],0 (5×) and 4 (2×) and 5 and 1 (3×) and 8
same,"BSS scoring A (active), Time Bin 14 (65-70 TOTAL)",[1],0 (6×) and 1 (2×) and 4 and 2 (3×)
same,"BSS scoring A (active), Time Bin 15 (70-75 TOTAL)",[1],5 and 3 (3×) and 0 (7×) and 2
same,"BSS scoring A (active), Time Bin 16 (75-80 TOTAL)",[1],4 (3×) and 3 and 5 (2×) and 0 (4×) and 2 and 1
same,"BSS scoring A (active), Time Bin 17 (80-85 TOTAL)",[1],0 (3×) and 3 and 9 (2×) and 1 and 6 and 5 and 4 (2×) and 2
same,"BSS scoring A (active), Time Bin 18 (85-90 TOTAL)",[1],0 (4×) and 1 (2×) and 7 and 3 and 5 (2×) and 2 (2×)
same,"BSS scoring E (eating/drinking), Time Bin 13 (60-65 TOTAL)",[1],8 (4×) and 5 (2×) and 6 and 10 (3×) and 9 and 2
same,"BSS scoring E (eating/drinking), Time Bin 14 (65-70 TOTAL)",[1],10 (3×) and 8 (3×) and 9 (3×) and 5 and 7 (2×)
same,"BSS scoring E (eating/drinking), Time Bin 15 (70-75 TOTAL)",[1],5 and 7 (2×) and 10 (4×) and 9 (3×) and 6 and 8
same,"BSS scoring E (eating/drinking), Time Bin 16 (75-80 TOTAL)",[1],6 (3×) and 3 (3×) and 10 and 9 (2×) and 8 (2×) and 4
same,"BSS scoring E (eating/drinking), Time Bin 17 (80-85 TOTAL)",[1],10 (2×) and 7 and 0 and 9 (2×) and 3 and 4 and 5 (2×) and 6 and 2
same,"BSS scoring E (eating/drinking), Time Bin 18 (85-90 TOTAL)",[1],10 (4×) and 8 (2×) and 7 (3×) and 0 and 5 and 3
same,"BSS scoring G (grooming), Time Bin 13 (60-65 TOTAL)",[1],0 (9×) and 1 (3×)
same,"BSS scoring G (grooming), Time Bin 14 (65-70 TOTAL)",[1],0 (6×) and 1 (6×)
same,"BSS scoring G (grooming), Time Bin 15 (70-75 TOTAL)",[1],0 (11×) and 1
same,"BSS scoring G (grooming), Time Bin 16 (75-80 TOTAL)",[1],0 (9×) and 4 and 1 (2×)
same,"BSS scoring G (grooming), Time Bin 17 (80-85 TOTAL)",[1],0 (7×) and 1 (4×) and 2
same,"BSS scoring G (grooming), Time Bin 18 (85-90 TOTAL)",[1],0 (10×) and 1 (2×)
same,"BSS scoring R (resting), Time Bin 13 (60-65 TOTAL)",[1],2 and 0 (9×) and 1 (2×)
same,"BSS scoring R (resting), Time Bin 14 (65-70 TOTAL)",[1],0 (10×) and 1 (2×)
same,"BSS scoring R (resting), Time Bin 15 (70-75 TOTAL)",[1],0 (9×) and 1 (3×)
same,"BSS scoring R (resting), Time Bin 16 (75-80 TOTAL)",[1],0 (5×) and 2 and 3 and 1 (5×)
same,"BSS scoring R (resting), Time Bin 17 (80-85 TOTAL)",[1],0 (10×) and 1 (2×)
same,"BSS scoring R (resting), Time Bin 18 (85-90 TOTAL)",[1],0 (7×) and 1 (4×) and 3
same,"BSS scoring A (active), Time Bin 13 (60-65 TOTAL), AVG",0.3 mg/kg,0.09
same,"BSS scoring A (active), Time Bin 14 (65-70 TOTAL), AVG",0.3 mg/kg,0.13
same,"BSS scoring A (active), Time Bin 15 (70-75 TOTAL), AVG",0.3 mg/kg,0.32
same,"BSS scoring A (active), Time Bin 16 (75-80 TOTAL), AVG",0.3 mg/kg,0.13
same,"BSS scoring A (active), Time Bin 17 (80-85 TOTAL), AVG",0.3 mg/kg,0.17
same,"BSS scoring A (active), Time Bin 18 (85-90 TOTAL), AVG",0.3 mg/kg,0.23
same,"BSS scoring E (eating/drinking), Time Bin 13 (60-65 TOTAL), AVG",0.3 mg/kg,0.81
same,"BSS scoring E (eating/drinking), Time Bin 14 (65-70 TOTAL), AVG",0.3 mg/kg,0.80
same,"BSS scoring E (eating/drinking), Time Bin 15 (70-75 TOTAL), AVG",0.3 mg/kg,0.56
same,"BSS scoring E (eating/drinking), Time Bin 16 (75-80 TOTAL), AVG",0.3 mg/kg,0.79
same,"BSS scoring E (eating/drinking), Time Bin 17 (80-85 TOTAL), AVG",0.3 mg/kg,0.69
same,"BSS scoring E (eating/drinking), Time Bin 18 (85-90 TOTAL), AVG",0.3 mg/kg,0.62
same,"BSS scoring G (grooming), Time Bin 13 (60-65 TOTAL), AVG",0.3 mg/kg,0.03
same,"BSS scoring G (grooming), Time Bin 14 (65-70 TOTAL), AVG",0.3 mg/kg,0.03
same,"BSS scoring G (grooming), Time Bin 15 (70-75 TOTAL), AVG",0.3 mg/kg,0.04
same,"BSS scoring G (grooming), Time Bin 16 (75-80 TOTAL), AVG",0.3 mg/kg,0.01
same,"BSS scoring G (grooming), Time Bin 17 (80-85 TOTAL), AVG",0.3 mg/kg,0.05
same,"BSS scoring G (grooming), Time Bin 18 (85-90 TOTAL), AVG",0.3 mg/kg,0.10
same,"BSS scoring R (resting), Time Bin 13 (60-65 TOTAL), AVG",0.3 mg/kg,0.07
same,"BSS scoring R (resting), Time Bin 14 (65-70 TOTAL), AVG",0.3 mg/kg,0.05
same,"BSS scoring R (resting), Time Bin 15 (70-75 TOTAL), AVG",0.3 mg/kg,0.08
same,"BSS scoring R (resting), Time Bin 16 (75-80 TOTAL), AVG",0.3 mg/kg,0.08
same,"BSS scoring R (resting), Time Bin 17 (80-85 TOTAL), AVG",0.3 mg/kg,0.09
same,"BSS scoring R (resting), Time Bin 18 (85-90 TOTAL), AVG",0.3 mg/kg,0.06
same,"BSS scoring A (active), Time Bin 13 (60-65 TOTAL)",[2],0 (7×) and 2 and 3 and 1 (2×) and 4
same,"BSS scoring A (active), Time Bin 14 (65-70 TOTAL)",[2],1 (4×) and 3 and 0 (6×) and 8
same,"BSS scoring A (active), Time Bin 15 (70-75 TOTAL)",[2],0 (2×) and 4 (2×) and 6 and 8 and 1 (2×) and 3 (3×) and 5
